Test results published in PMC9021288 (Nature Communications, 2022).
“Also recorded” adds a separate entry of the source.

Assays:
[1] = system: P. falciparum NF54 rings and schizonts; assay: Stage-specific activity on synchronized ring and schizont cultures; assay type: cell-based, Plasmodium falciparum
Method: Asynchronous NF54 parasites were cultured in a semi-automated shaker system[63] and synchronized once with 5% D-sorbitol. […] This yielded a parasite culture with ≥ 90% rings. To assess the schizont-stage activity of MMV693186, the initial synchronized culture was treated again with sorbitol 7 h later. Subsequently, parasites were cultured for another 17 h to yield a parasite culture of ≥ 90% early schizont stages. The ring and schizont synchronized cultures were diluted to 0.5% and then incubated with either 50 nM DHA or 50 nM MM693183 for 24 h in duplicate. Subsequently, the drug was washed out and parasites were cultured for another 24 h. Parasitemia was determined using Giemsa-stained thin smears at 0 h, 24 h, and 48 h after drug exposure.

[2] = system: control-cKD P. falciparum; assay: Drug sensitivity of control conditional knockdown parasites; assay type: cell-based, Plasmodium falciparum; settings: 0 nM vs 500 nM aTc
Method: Replication assays were performed using a SYBR Green method as described previously. Briefly, asynchronous parasites were diluted to 0.83% parasitemia, 3% hematocrit in 30 µl medium, and added to 30 µl of diluted compounds in medium (0.1% DMSO final concentration) in black 384-wells plates. After a 72-h incubation, 30 µl of SYBR Green diluted in lysis buffer was added according to the manufacturer’s protocol (Life Technologies). Fluorescence intensity was measured on a BioTek Synergy 2 Plate Reader after 1-h incubation and was normalized to a DMSO control (100% growth) and DHA- or epoxomicin-treatment (no growth). […] Parasite survival was assessed by flow cytometry on an Accuri C6 (BD Biosciences) with BD C6 Plus software using SYBR Green and MitoTracker Deep Red FM (Life Technologies) as nuclear stain and vital dye, respectively, and data were analyzed using FlowJo (10.5.0). […] Luminescence was measured after 72 h using the Renilla-Glo(R) Luciferase Assay System (Promega E2750) and the GlomAX® Discover Multimode Microplate Reader (Promega). The luminescence values were normalized to DMSO vehicle (100% growth) and 200 nM chloroquine-treated (no growth) samples as controls.

[3] = system: human primary hepatocytes; assay: Metabolite identification in human hepatocyte relay assay
From the text: Briefly, cryopreserved human primary hepatocytes were thawed and cultured as described above.

[4] = system: cryopreserved human hepatocytes; assay: MTT cytotoxicity in induction-study hepatocytes; assay type: cell-based; settings: up to 500 µM, 72 h, one donor
[5] = system: human peripheral blood lymphocytes; assay: In vitro micronucleus screening assay
Method: Safety studies were performed by commercial services using their standard protocols. […] Genotoxicity was investigated using the Ames test (Bacterial Reverse Mutation Assay) (Covance Laboratories Ltd, North Yorkshire, England). In vitro mammalian cell micronucleus screening assay was studied in human peripheral blood lymphocytes (BioReliance Corporation, Rockville, USA). Cardiotoxicity was determined against the hERG channel in an automated patch clamp assay using the Qpatch or against the hNaV 1.5, hKV 1.5 and hCaV 1.2 using a manual patch-clamp technique (Metrion Biosciences, Cambridge, UK). Cytotoxicity in human and rat primary hepatocytes was assessed using the CellTiter-Blue assay performed by commercial services (KaLy-Cell). The viability of HepG2 cells was monitored through the addition of 1 mM resazurin. Following 6 h incubation, the relative amount of reduced resazurin was detected in a fluorimeter and compared to the assay controls (vehicle: 0.1% DMSO and positive control: 10 µM puromycin).

3-day MTD2 rat study = assay type: in vivo, Wistar Han rats; settings: 300, 600, 1000 mg/kg/day, three days
From the text: See the summary of the study design in Supplementary Table 31. Nine-week-old Wistar (Crl:WI (Han)) rats were obtained from Charles River Laboratories (Domaine des Oncins, Saint-Germain-Nuelles, France). […] Animals were examined daily for any altered clinical signs, body weights, and food consumption. Blood samples were taken at different timepoints after the test item administration, and toxicokinetic exposure assessed under the defined experimental conditions and analyzed using Phoenix (version 6.4 and 1.4) (Supplementary Table 32). Measurements included hematology and clinical chemistry measurements. Animals were euthanized and necropsied at the end of the dosing period. At necropsy, major organ systems and tissues were collected and weighed and then examined for gross lesions as well as for microscopic changes.

[6] = 4-hour treatment + S9, 13.6 ug/ml
[7] = 4-hour treatment + S9, 19.4 ug/ml
[8] = 4-hour treatment + S9, 27.7 ug/ml
[9] = 4-hour treatment + S9, 39.5 ug/ml
[10] = 4-hour treatment + S9, 56.5 ug/ml
[11] = 4-hour treatment + S9, 80.7 ug/ml
[12] = 4-hour treatment + S9, 115 ug/ml
[13] = 4-hour treatment + S9, 165 ug/ml
[14] = 4-hour treatment + S9, 235 ug/ml
[15] = 4-hour treatment + S9, 336 ug/ml
[16] = 4-hour treatment + S9, 480 ug/ml
[17] = 4-hour treatment + S9, 686 ug/ml
[18] = 4-hour treatment + S9, 980 ug/ml
[19] = 4-hour treatment + S9, 1400 ug/ml
[20] = 4-hour treatment + S9, 2000 ug/ml
[21] = 4-hour treatment - S9, 13.6 ug/ml
[22] = 4-hour treatment - S9, 19.4 ug/ml
[23] = 4-hour treatment - S9, 27.7 ug/ml
[24] = 4-hour treatment - S9, 39.5 ug/ml
[25] = 4-hour treatment - S9, 56.5 ug/ml
[26] = 4-hour treatment - S9, 80.7 ug/ml
[27] = 4-hour treatment - S9, 115 ug/ml
[28] = 4-hour treatment - S9, 165 ug/ml
[29] = 4-hour treatment - S9, 235 ug/ml
[30] = 4-hour treatment - S9, 336 ug/ml
[31] = 4-hour treatment - S9, 480 ug/ml
[32] = 4-hour treatment - S9, 686 ug/ml
[33] = 4-hour treatment - S9, 980 ug/ml
[34] = 4-hour treatment - S9, 1400 ug/ml
[35] = 4-hour treatment - S9, 2000 ug/ml

With `C[C@@H](CNC(=O)[C@H](O)C(C)(C)CO)NC(=O)c1cc(F)c(F)cc1F` [MMV693183] the “activity against asexual stages” value ([1]; 50 nM, 24 h) was “active against both early and late asexual blood stages”, the “Parasitemia, rings culture” value ([1]; Time (h) 0) was 0.4 and the “Parasitemia, rings culture” value ([1]; Time (h) 24) was 0. The “Parasitemia, schizonts culture” value ([1]; Time (h) 0) was 0.2, the “Parasitemia, schizonts culture” value ([1]; Time (h) 24) was 0 and the “IC50 change upon knockdown” value [2] was “no difference in sensitivity”. For the same compound, the “In vitro (MS response)” value [3] was 85%, the “cell viability (MTT)” value [4] was “no change in cell viability” and the CBPI [5, 6] was 1.808. For the same compound, the “Cytotoxicity (%)” value [5, 6] was 12%, the CBPI [5, 7] was 1.792 and the “Cytotoxicity (%)” value [5, 7] was 14%. The CBPI [5, 8] was 1.76, the “Cytotoxicity (%)” value [5, 8] was 17% and the CBPI [5, 9] was 1.788. The “Cytotoxicity (%)” value [5, 9] was 14%, the CBPI [5, 10] was 1.84 and the “Cytotoxicity (%)” value [5, 10] was 9%. The CBPI [5, 11] was 1.792, the “Cytotoxicity (%)” value [5, 11] was 14% and the CBPI [5, 12] was 1.86. The “Cytotoxicity (%)” value [5, 12] was 7%, the CBPI [5, 13] was 1.824 and the “Cytotoxicity (%)” value [5, 13] was 10%. For the same compound, the CBPI [5, 14] was 1.772, the “Cytotoxicity (%)” value [5, 14] was 16% and the CBPI [5, 15] was 1.824. The “Cytotoxicity (%)” value [5, 15] was 10%, the CBPI [5, 16] was 1.848 and the “Cytotoxicity (%)” value [5, 16] was 8%. The “Percentage of MNBN Cells/Total BN Cells counted (%)” value [5, 16] was 0.4%, the CBPI [5, 17] was 1.824 and the “Cytotoxicity (%)” value [5, 17] was 10%. The CBPI [5, 18] was 1.84, the “Cytotoxicity (%)” value [5, 18] was 9% and the CBPI [5, 19] was 1.836. The “Cytotoxicity (%)” value [5, 19] was 9%, the “Percentage of MNBN Cells/Total BN Cells counted (%)” value [5, 19] was 0.6% and the CBPI [5, 20] was 1.388. The “Cytotoxicity (%)” value [5, 20] was 58%, the “Percentage of MNBN Cells/Total BN Cells counted (%)” value [5, 20] was 0.4% and the CBPI [5, 21] was 1.916. The “Cytotoxicity (%)” value [5, 21] was 0%, the CBPI [5, 22] was 1.86 and the “Cytotoxicity (%)” value [5, 22] was 6%. For the same compound, the CBPI [5, 23] was 1.912, the “Cytotoxicity (%)” value [5, 23] was 0% and the CBPI [5, 24] was 1.832. For the same compound, the “Cytotoxicity (%)” value [5, 24] was 9%, the CBPI [5, 25] was 1.864 and the “Cytotoxicity (%)” value [5, 25] was 6%. For the same compound, the CBPI [5, 26] was 1.876, the “Cytotoxicity (%)” value [5, 26] was 4% and the CBPI [5, 27] was 1.88. For the same compound, the “Cytotoxicity (%)” value [5, 27] was 4%, the CBPI [5, 28] was 1.804 and the “Cytotoxicity (%)” value [5, 28] was 12%. For the same compound, the CBPI [5, 29] was 1.84, the “Cytotoxicity (%)” value [5, 29] was 8% and the CBPI [5, 30] was 1.792. The “Cytotoxicity (%)” value [5, 30] was 14%, the CBPI [5, 31] was 1.8 and the “Cytotoxicity (%)” value [5, 31] was 13%. The “Percentage of MNBN Cells/Total BN Cells counted (%)” value [5, 31] was 0.4%, the CBPI [5, 32] was 1.832 and the “Cytotoxicity (%)” value [5, 32] was 9%. The CBPI [5, 33] was 1.808, the “Cytotoxicity (%)” value [5, 33] was 12% and the CBPI [5, 34] was 1.704. The “Cytotoxicity (%)” value [5, 34] was 23%, the “Percentage of MNBN Cells/Total BN Cells counted (%)” value [5, 34] was 0.4% and the CBPI [5, 35] was 1.496. For the same compound, the “Cytotoxicity (%)” value [5, 35] was 46%, the “Percentage of MNBN Cells/Total BN Cells counted (%)” value [5, 35] was 0.4% and the micronucleus test result ([5]; up to 2000 µg/ml, with or without S-9) was “No induction of micronuclei; also recorded: negative”. The toxicity (3-day MTD2 rat study) was “no relevant toxicity was observed”.
